Laboratory results from ChEMBL document CHEMBL5620389, “Development of diphenylmethylpiperazine hybrids of chloroquinoline and triazolopyrimidine using Petasis reaction as new cysteine proteases inhibitors for malaria therapeutics” (Eur J Med Chem, 2023).
The source made the active and inactive calls.

Legend:
Plasmodium falciparum [1] = test: Antimalarial activity against chloroquine-sensitive Plasmodium falciparum 3D7 infected in RBC incubated for 50 hrs by SYBR green I staining based microplate reader assay; type: functional, organism-based; details: 3D7, Erythrocyte
Erythrocyte = test: Hemolytic activity in human RBC at 100 uM incubated for 2 hrs by microplate reader analysis; type: toxicity, cell-based
Plasmodium falciparum [2] = test: Antimalarial activity against chloroquine-sensitive Plasmodium falciparum K1 incubated for 72 hrs by MSF assay; type: functional, organism-based; details: K1, 72 h
Plasmodium falciparum [3] = test: Antimalarial activity against chloroquine-sensitive Plasmodium falciparum 3D7 incubated for 72 hrs by MSF assay; type: functional, organism-based; details: 3D7, 72 h
Plasmodium yoelii [4] = test: Antimalarial activity against Plasmodium yoelii N67 infected in Swiss mouse assessed as parasitemia suppression at 12.5 mg/kg/day, po measured on day 4; type: functional; details: time 4 day
Plasmodium yoelii [5] = test: Antimalarial activity against Plasmodium yoelii N67 infected in Swiss mouse assessed as curative rate at 12.5 mg/kg/day, po measured on day 28; type: functional; details: time 28 day
Falcipain-3 = molecular target: T1, Falcipain-3 (Plasmodium falciparum 3D7, UniProt Q8IIL0); test: Inhibition of Plasmodium falciparum FP3 using Z-Leu-Arg-AMC as substrate preincubated for 30 mins followed by substrate addition and measured for 30 mins by spectrofluorometer analysis
T1 sequence (Q8IIL0 whole entry): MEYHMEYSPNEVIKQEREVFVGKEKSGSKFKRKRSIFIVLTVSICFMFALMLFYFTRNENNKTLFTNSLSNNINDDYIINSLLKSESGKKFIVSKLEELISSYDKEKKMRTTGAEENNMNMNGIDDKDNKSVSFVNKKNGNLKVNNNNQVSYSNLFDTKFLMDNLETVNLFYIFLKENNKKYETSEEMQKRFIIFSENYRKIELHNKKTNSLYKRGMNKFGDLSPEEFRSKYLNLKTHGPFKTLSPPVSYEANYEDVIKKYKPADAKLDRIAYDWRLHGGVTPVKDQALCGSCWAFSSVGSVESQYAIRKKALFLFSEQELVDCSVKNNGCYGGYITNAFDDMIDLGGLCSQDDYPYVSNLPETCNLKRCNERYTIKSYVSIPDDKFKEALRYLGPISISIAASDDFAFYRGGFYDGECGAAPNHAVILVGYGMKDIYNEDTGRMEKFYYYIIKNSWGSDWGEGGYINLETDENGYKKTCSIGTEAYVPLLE

Plasmodium falciparum [6] = test: Antiplasmodial activity against synchronized Plasmodium falciparum 3D7 assessed as arrest in parasite development at trophozoite stage at 3 times IC50 after 24 to 48 hrs by Giesma-staining based light microscopic analysis; type: functional, organism-based; details: time 24-48 hrs
Falcipain 2 = molecular target: T2, Falcipain 2 (Plasmodium falciparum, UniProt Q9N6S8); test: Inhibition of Plasmodium falciparum FP2 using Z-Leu-Arg-AMC as substrate preincubated for 30 mins followed by substrate addition and measured for 30 mins by spectrofluorometer analysis
T2 sequence (Q9N6S8 whole entry): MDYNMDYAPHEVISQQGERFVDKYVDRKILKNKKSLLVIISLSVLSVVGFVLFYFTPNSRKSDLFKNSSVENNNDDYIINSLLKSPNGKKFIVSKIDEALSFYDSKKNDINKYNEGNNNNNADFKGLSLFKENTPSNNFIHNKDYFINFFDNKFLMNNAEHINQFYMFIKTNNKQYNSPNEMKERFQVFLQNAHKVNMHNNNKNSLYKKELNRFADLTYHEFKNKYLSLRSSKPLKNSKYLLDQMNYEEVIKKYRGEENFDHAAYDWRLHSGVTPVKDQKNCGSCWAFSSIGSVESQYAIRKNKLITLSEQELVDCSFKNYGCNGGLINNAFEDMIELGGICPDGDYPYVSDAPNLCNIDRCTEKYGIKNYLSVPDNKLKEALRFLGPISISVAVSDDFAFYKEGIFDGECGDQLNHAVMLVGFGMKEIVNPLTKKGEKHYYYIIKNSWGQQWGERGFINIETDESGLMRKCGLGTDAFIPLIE

[7] = Cytotoxicity against African green monkey Vero cells at 1000 uM; type: toxicity, cell-based; details: chlorocebus sabaeus
Plasmodium falciparum [8] = test: Antimalarial activity against chloroquine-resistant Plasmodium falciparum W2 infected in RBC incubated for 50 hrs by SYBR green I staining based microplate reader assay; type: functional, organism-based; details: W2, Erythrocyte
[9] = Cytotoxicity against human […] cells incubated for 24 hrs by MTT assay; type: toxicity, cell-based
Plasmodium falciparum [10] = test: Antimalarial activity against Plasmodium falciparum 3D7; type: functional, organism-based
Plasmodium falciparum [11] = test: Antimalarial activity against Plasmodium falciparum K1; type: functional, organism-based

SMILES	IC50 (Plasmodium falciparum [1])	Activity (Erythrocyte)	IC50 (Falcipain-3)	Activity (Plasmodium falciparum [6])	IC50 (Falcipain 2)	Activity [7]	IC50 (Plasmodium falciparum [8])	IC50 at 24 h [9]	other results
COc1cccc(C(c2ccc(F)cc2)N2CCN(c3ccnc4cc(Cl)ccc34)CC2)c1O (stereo not drawn)	1.54 µM	Toxic	–	–	–	–	–	–	–
CCN1CCN(CC(CC(C)C)Nc2ccnc3cc(Cl)ccc23)CC1 (stereo not drawn)	–	–	–	–	–	–	–	–	IC50 (Plasmodium falciparum [2]): 0.0978 µM; IC50 (Plasmodium falciparum [3]): 0.057 µM; Activity (Plasmodium yoelii [4]): 100%; Activity (Plasmodium yoelii [5]): 100%
Cc1cc(N2CCN(C(c3ccc(F)cc3)c3ccccc3O)CC2)n2ncnc2n1 (stereo not drawn)	34.3 µM	Toxic	–	–	–	–	–	–	–
Cc1cc(N2CCN(C(c3ccc(Cl)c(Cl)c3)c3ccccc3O)CC2)n2ncnc2n1 (stereo not drawn)	3.33 µM	Toxic	–	–	–	–	–	–	–
COc1cccc(C(c2ccc(F)c(F)c2)N2CCN(c3ccnc4cc(Cl)ccc34)CC2)c1O (stereo not drawn)	1.31 µM	Toxic	10.8 µM	Active	10.4 µM	Non-Toxic	1.4 µM	17.9 µM	–
COc1cccc(C(c2ccc(C(F)(F)F)cc2)N2CCN(c3ccnc4cc(Cl)ccc34)CC2)c1O (stereo not drawn)	0.53 µM	Toxic	6.2 µM	Active	5.4 µM	Non-Toxic	3.29 µM	32.9 µM	–
Cc1ccc(C(c2ccccc2O)N2CCN(c3ccnc4cc(Cl)ccc34)CC2)cc1 (stereo not drawn)	1.06 µM	Toxic	6.7 µM	Active	6.1 µM	Non-Toxic	1.28 µM	134 µM	–
COc1ccc(C(c2ccccc2O)N2CCN(c3ccnc4cc(Cl)ccc34)CC2)cc1 (stereo not drawn)	1.62 µM	Toxic	–	–	–	–	–	–	–
COc1cccc(C(c2ccc(Cl)c(Cl)c2)N2CCN(c3ccnc4cc(Cl)ccc34)CC2)c1O (stereo not drawn)	1.06 µM	Toxic	5.9 µM	Active	4.6 µM	Non-Toxic	0.66 µM	172 µM	–
Oc1ccccc1C(c1ccc(F)c(F)c1)N1CCN(c2ccnc3cc(Cl)ccc23)CC1 (stereo not drawn)	0.74 µM	Toxic	4.9 µM	Active	3.9 µM	Non-Toxic	1.05 µM	188 µM	–
Oc1ccccc1C(c1ccc(C(F)(F)F)cc1)N1CCN(c2ccnc3cc(Cl)ccc23)CC1 (stereo not drawn)	1.41 µM	Toxic	–	–	–	–	–	–	–
COc1cccc(C(c2ccc(C)cc2)N2CCN(c3ccnc4cc(Cl)ccc34)CC2)c1O (stereo not drawn)	1.65 µM	Toxic	–	Active	–	–	–	–	–
CC(C)(C)NCc1ccc(Nc2ccnc3cc(Cl)ccc23)cc1O [GSK-369796]	–	–	–	–	–	–	–	–	IC50 (Plasmodium falciparum [10]): 0.011 µM; IC50 (Plasmodium falciparum [11]): 0.013 µM
Cc1ccc(C(c2ccccc2O)N2CCN(c3cc(C)nc4ncnn34)CC2)cc1 (stereo not drawn)	> 25 µM	Toxic	–	–	–	–	–	–	–
COc1cccc(C(c2ccc(OC(F)(F)F)cc2)N2CCN(c3ccnc4cc(Cl)ccc34)CC2)c1O (stereo not drawn)	1.47 µM	Toxic	–	–	–	–	–	–	–
COc1cccc(C(c2ccc(F)c(Cl)c2)N2CCN(c3ccnc4cc(Cl)ccc34)CC2)c1O (stereo not drawn)	1.46 µM	Toxic	–	–	–	–	–	–	–
Oc1ccccc1C(c1ccc(F)c(Cl)c1)N1CCN(c2ccnc3cc(Cl)ccc23)CC1 (stereo not drawn)	1.2 µM	Toxic	10.1 µM	Active	8.7 µM	Non-Toxic	0.46 µM	139 µM	–
COc1ccc(C(c2cccc(OC)c2O)N2CCN(c3ccnc4cc(Cl)ccc34)CC2)cc1 (stereo not drawn)	1.09 µM	Toxic	7.8 µM	–	7.1 µM	Non-Toxic	2.6 µM	214 µM	–
COc1ccc(C(c2ccccc2O)N2CCN(c3cc(C)nc4ncnn34)CC2)cc1 (stereo not drawn)	> 25 µM	Toxic	–	–	–	–	–	–	–
Oc1ccccc1C(c1ccc(OC(F)(F)F)cc1)N1CCN(c2ccnc3cc(Cl)ccc23)CC1 (stereo not drawn)	0.74 µM	Toxic	4.7 µM	Active	4.8 µM	Non-Toxic	1.24 µM	104 µM	–
CCN(CC)CCCC(C)Nc1ccnc2cc(Cl)ccc12 (stereo not drawn) [CHLOROQUINE]	–	Toxic	–	–	–	–	–	–	–
Cc1cc(N2CCN(C(c3ccc(F)c(F)c3)c3ccccc3O)CC2)n2ncnc2n1 (stereo not drawn)	6.87 µM	Toxic	–	–	–	–	–	–	–
